Values of other authors as cited in patent EP3645498B1, “PROCESS FOR RECOVERING ACETIC ACID FROM AN AQUEOUS STREAM COMPRISING THE SAME” (Nouryon Chemicals International B.V., priority 2017, dated 2019).
Where two headings read alike, the source gives them in different places.

| Structure (SMILES) | Solubility in water (result in words) | Solubility in water |
| --- | --- | --- |
| CCCCCCCCCCCO [1 -Undecanol, 1-undecanol] | Insoluble^[10] |  |
| CCCCCCCCCCCCc1ccccc1 [Phenyldodecane, phenyldodecane] | Insoluble^[11] |  |
| CCCCCCCCN(CCCCCCCC)CCCCCCCC [TOA, trioctylamine] |  | < 5ppm^[2] |
| CCCCCCCCP(=O)(CCCCCCCC)CCCCCCCC [TOPO, tri-octylphosphine oxide] | Insoluble^[5] |  |
| CCCCCCCCCCCCCC [n-Tetradecane, n-tetradecane] |  | 0.0022 mg/L^[8] |
